Assay results reported in patent US20150239905A1, “IMIDAZOPYRIDINE COMPOUNDS” (Proximagen Limited, priority 2008, published 2015).

biological target: T1, purified recombinantly expressed human SSAO (Homo sapiens, UniProt Q16853); assay: SSAO enzyme inhibition assay (benzylamine substrate; hydrogen peroxide/HRP-coupled or 14C-benzaldehyde detection); format: biochemical; conditions: human recombinant SSAO, benzylamine as substrate, rt
T1 construct: made in house
T1 sequence (Q16853 29-763 limits assumed): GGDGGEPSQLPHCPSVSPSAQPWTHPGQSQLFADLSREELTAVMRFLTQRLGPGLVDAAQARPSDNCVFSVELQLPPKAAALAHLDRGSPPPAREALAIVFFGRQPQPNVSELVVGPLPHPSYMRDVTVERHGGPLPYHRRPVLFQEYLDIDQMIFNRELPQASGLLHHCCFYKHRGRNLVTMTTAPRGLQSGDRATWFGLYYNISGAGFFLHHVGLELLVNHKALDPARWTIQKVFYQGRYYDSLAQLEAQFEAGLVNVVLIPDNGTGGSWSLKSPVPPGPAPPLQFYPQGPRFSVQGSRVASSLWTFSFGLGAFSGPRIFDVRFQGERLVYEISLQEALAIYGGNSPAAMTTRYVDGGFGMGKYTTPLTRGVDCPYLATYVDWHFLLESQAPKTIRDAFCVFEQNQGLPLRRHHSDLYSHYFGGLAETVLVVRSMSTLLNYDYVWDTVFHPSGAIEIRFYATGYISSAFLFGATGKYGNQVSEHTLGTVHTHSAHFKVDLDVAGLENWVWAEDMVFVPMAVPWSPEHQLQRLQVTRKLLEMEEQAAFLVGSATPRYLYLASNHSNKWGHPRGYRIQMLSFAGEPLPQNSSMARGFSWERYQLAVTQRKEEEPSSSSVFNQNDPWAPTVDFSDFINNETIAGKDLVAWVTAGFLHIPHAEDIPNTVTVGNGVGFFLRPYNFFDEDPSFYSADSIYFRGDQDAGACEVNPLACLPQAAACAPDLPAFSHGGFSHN
Procedure: All primary assays were performed in rt with purified recombinantly expressed human SSAO. Enzyme was prepared essentially as described in Öhman et al. (Protein Expression and Purification 46 (2006) 321-331). In addition, secondary- and selectivity assays were performed using SSAO prepared from various tissues or purified rat recombinant SSAO. The enzyme activity was assayed with benzylamine as substrate by measuring either benzaldehyde production, using ^14C-labeled substrate, or by utilizing the production of hydrogen peroxide in a horseradish peroxidise (HRP) coupled reaction. Briefly, test compounds were dissolved in dimethyl sulfoxide (DMSO) to a concentration of 10 mM. Dose-response measurements were assayed by either creating 1:10 serial dilutions in DMSO to produce a 7 point curve or by making 1:3 serial dilutions in DMSO to produce 11 point curves. The top concentrations were adjusted depending on the potency of the compounds and subsequent dilution in reaction buffer yielded a final DMSO concentration≦2%.
In a horseradish peroxidise (HRP) coupled reaction, hydrogen peroxide oxidation of 10-acetyl-3,7-dihydroxyphenoxazine produced resorufin, which is a highly fluorescent compound (Zhout and Panchuk-Voloshina. Analytical Biochemistry 253 (1997) 169-174; Amplex® Red Hydrogen Peroxide/peroxidise Assay kit, Invitrogen A22188). Enzyme and compounds in 50 mM sodium phosphate, pH 7.4 were set to pre-incubate in flat-bottomed microtiter plates for approximately 15 minutes before initiating the reaction by addition of a mixture of HRP, benzylamine and Amplex reagent. Benzylamine concentration was fixed at a concentration corresponding to the Michaelis constant, determined using standard procedures. Fluorescence intensity was then measured at several time points during 1-2 hours, exciting at 544 nm and reading the emission at 590 nm. For the human SSAO assay final concentrations of the reagents in the assay wells were: SSAO enzyme […], benzylamine 100 μM, Amplex reagent 20 μM, HRP 0.1 U/mL and varying concentrations of test compound. The inhibition was measured as % decrease of the signal compared to a control without inhibitor (only diluted DMSO). The background signal from a sample containing no SSAO enzyme was subtracted from all data points. Data was fitted to a four parameter logistic model and IC50 values were calculated using the GraphPad Prism 4 or XLfit 4 programs.
SSAO activity was assayed using 14C-labeled benzylamine and analysed by measuring radioactive benzaldehyde. […] Phase separation occurred instantly and activity was read in a Topcount scintillation counter (Perkin-Elmer). […] Data was analysed as above.

IC50 [nM] | Structure (SMILES)
155 | O=C(c1ccc2nc(-c3ccc(Cl)cc3)c(CO)n2c1)N1CCC(CO)CC1 [Example 62, (1-{[2-(4-Chlorophenyl)-3-(hydroxymethyl)imidazo[1,2-a]pyridin-6-yl]carbonyl}piperidin-4-yl)methanol]
89 | CC(O)c1cn2c(CO)c(-c3ccc(Cl)cc3)nc2s1 (stereo not shown) [Example 106, 1-[6-(4-Chlorophenyl)-5-(hydroxymethyl)imidazo[2,1-b][1,3]thiazol-2-yl]ethanol]
248 | COc1cccc(-c2nc3cnc(Br)cn3c2CO)c1 [Example 81, [6-Bromo-2-(3-methoxyphenyl)imidazo[1,2-a]pyrazin-3-yl]methanol]

Structure (SMILES) | IC50 [nM]
OCc1c(-c2ccc(Br)cc2)nc2ccc(C(F)(F)F)cn12 [Example 23, [2-(4-Bromophenyl)-6-(trifluoromethyl)imidazo[1,2-a]pyridin-3-yl]methanol] | 88
